Measured values reported in patent US6596772B1, “Phosphate mimics and methods of treatment using phosphatase inhibitors” (Sugen, Inc., priority 1999, dated 2003).
Read-outs that look alike come from different tables or passages of the source.

How the values were obtained:
Experiment in all cases: PTP IC50 assay, pNPP or FDP as substrate
Type in all cases: biochemical
PTP SHP2 = target: T1, PTP SHP2 (Homo sapiens, UniProt Q06124)
T1 construct: The catalytic domain was amplified using the following oligonucleotides; made in house; host or cells: Sf-9 insect cells (pFastBac-G2T)
T1 sequence (Q06124 247-517 limits assumed): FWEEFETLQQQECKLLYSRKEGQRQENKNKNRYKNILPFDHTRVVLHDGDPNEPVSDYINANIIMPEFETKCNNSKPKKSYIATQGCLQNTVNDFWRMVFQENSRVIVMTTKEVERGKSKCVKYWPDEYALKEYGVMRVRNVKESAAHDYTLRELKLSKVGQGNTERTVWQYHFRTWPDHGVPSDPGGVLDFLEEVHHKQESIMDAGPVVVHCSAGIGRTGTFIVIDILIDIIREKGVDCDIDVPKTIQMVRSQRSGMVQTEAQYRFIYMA
Protocol: (§1) The following in vitro assay procedure is preferred to determine the level of activity and effect of the different compounds of the present invention on one or more of the PTPs. Similar assays can be designed along the same lines for any PTP using techniques well known in the art.
(§2) The catalytic assays described herein are performed in a 96-well format. The general procedure begins with the determination of PTP optimal pH using a three-component buffer system that minimizes ionic strength variations across a wide range of buffer pH. Next, the Michaelis-Menten constant, or Km, is determined for each specific substrate-PTP system. This Km value is subsequently used as the substrate reaction concentration for compound screening. Finally, the test PTP is exposed to varying concentrations of compound for fifteen minutes and allowed to react with substrate for ten minutes. The results are plotted as percent inhibition versus compound concentration and the IC50 interpolated from the plot.
(§3) All assays were performed using pNPP or FDP as substrate. The optimum pH was determined for each PTP used.
(§4) PTPase activity was assayed at 25° C. in a 100-μl reaction mixture containing an appropriate concentration of pNPP or FDP as substrate. The reaction was initiated by addition of the PTP and quenched after 10 min by addition of 50 μl of IN NaOH. The non-enzymatic hydrolysis of the substrate was corrected by measuring the control without the addition of the enzyme. The amount of p-nitrophenol produced was determined from the absorbance at 410 nm. To determine the kinetic parameter, Km, the initial velocities were measured at various substrate concentrations and the data were fitted to the Michaelis equation where velocity=(Vmax*[S])/(Km+[S]), and [S]=substrate reaction concentration.
(§5) The effect of the compounds on PTP was evaluated at 25° C. using pNPP or FDP as substrate. PTP was pre-incubated for fifteen minutes with various concentrations of compound. Substrate was then added at a fixed concentration (usually equal to the Km previously calculated). After 10 minutes, NaOH was added to stop the reaction. The hydrolysis of pNPP was followed at 410 nm on the Biotek Powerwave 200 microplate scanning spectrophotometer. The percent inhibition was calculated as follows: Percent Inhibition=[(control signal−compound signal)/control signal] ×100%. The IC50 was then determined by interpolation of a percent inhibition versus compound concentration plot.
(§6) Plasmids designed for bacterial GST-PTP fusion protein expression were derived by insertion of PCR-generated human PTP fragments into pGEX vectors (Pharmacia Biotech). Several of these constructs were then used to subclone phosphatases into pFastBac-1for expression in Sf-9 insect cells. Oligonucleotides used for the initial amplification of PTP genes are shown below. The cDNAs were prepared using the Gilbo BRL superscript preamplification system on RNAs purchased from Clontech.
SHP-2 cDNA was used as described earlier (Vogel W., et al.,1993, Science, 259:1611-4). The catalytic domain was amplified using the following oligonucleotides 5′oligo: 5′-[…]-3′ (SEQ ID NO: 2) 3′oligo: 5′-[…]-3′ (SEQ ID NO: 3) and subsequently subcloned into BamH1-Xba-1 sites. It was then ligated into pfas Bac-G2T BamH1-Xba-1 sites.

PTP MEG2 = target: T2, PTP MEG2 (Homo sapiens, UniProt P43378)
T2 construct: made in house; host or cells: E. coli BL-21 (pGEX 6P-1)
T2 sequence (P43378 262-593 limits assumed): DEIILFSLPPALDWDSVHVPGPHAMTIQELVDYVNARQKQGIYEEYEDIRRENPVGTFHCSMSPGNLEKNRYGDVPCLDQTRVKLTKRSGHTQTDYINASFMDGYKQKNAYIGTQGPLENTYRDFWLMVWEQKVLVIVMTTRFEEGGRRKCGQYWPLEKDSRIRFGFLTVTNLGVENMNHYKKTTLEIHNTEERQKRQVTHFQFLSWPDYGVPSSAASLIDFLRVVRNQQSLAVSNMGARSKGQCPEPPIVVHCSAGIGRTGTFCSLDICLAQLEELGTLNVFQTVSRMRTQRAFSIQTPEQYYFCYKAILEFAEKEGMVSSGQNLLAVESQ
Protocol: as §1, §2, §3, §4, §5, §6
The PTP MEG2 cDNA was amplified from human placenta single strand cDNA (Clontech RNA) using the following oligonucleotides: 5′oligo: 5′-[…]-3′ (SEQ ID NO: 8) 3′oligo: 5′-[…]-3′ (SEQ ID NO: 9) and subsequently ligated into pGex 6P-1 Eco RI/Xho I sites.

PTP SIGMA = target: T3, PTP SIGMA (Homo sapiens, UniProt Q13332)
T3 construct: made in house; host or cells: E. coli BL-21 (pGEX 6P-1)
T3 sequence (Q13332 1320-1660 limits assumed): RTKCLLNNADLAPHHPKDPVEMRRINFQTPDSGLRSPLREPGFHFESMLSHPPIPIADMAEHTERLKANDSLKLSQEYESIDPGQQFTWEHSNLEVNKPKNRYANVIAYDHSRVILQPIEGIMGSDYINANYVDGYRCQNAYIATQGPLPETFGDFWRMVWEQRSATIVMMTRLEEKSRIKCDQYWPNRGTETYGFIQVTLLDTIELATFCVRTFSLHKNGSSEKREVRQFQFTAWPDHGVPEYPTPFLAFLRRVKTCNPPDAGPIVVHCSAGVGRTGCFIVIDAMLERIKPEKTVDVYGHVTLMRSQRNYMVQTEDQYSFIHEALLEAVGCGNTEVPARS
Protocol: as §1, §2, §3, §4, §5, §6
The PTP Sigma cDNA was amplified from human brain single strand cDNA (Clontech RNA) using the following oligonucleotides: 5′oligo: 5′-[…]-3′ (SEQ ID NO: 12) 3′oligo: 5′-[…]-3′ (SEQ ID NO: 13) and subsequently ligated into pGex 6P-1 Eco RI/Xho I sites.

[1] = pNPP or FDP as substrate, 25° C., read-out: PTP IC50 SHP2
[2] = pNPP or FDP as substrate, 25° C., read-out: PTP IC50 MEG2
[3] = pNPP or FDP as substrate, 25° C., read-out: PTP IC50 Sigma
[4] = comparison of R groups, read-out: IC50 SHP2
[5] = comparison of R groups, read-out: IC50 MEG2
[6] = comparison of R groups, read-out: IC50 Sigma

| Compound | IC50 (PTP SHP2; [1]) [µM] | IC50 (PTP MEG2; [2]) [µM] | IC50 (PTP SIGMA; [3]) [µM] | IC50 (PTP SHP2; [4]) [µM] | IC50 (PTP MEG2; [5]) [µM] | IC50 (PTP SIGMA; [6]) [µM] | IC50 (PTP SHP2; PTP IC50 SHP2, pNPP or FDP as substrate, 25° C.) [µM] | IC50 (PTP MEG2; PTP IC50 MEG2, pNPP or FDP as substrate, 25° C.) [µM] | IC50 (PTP SIGMA; PTP IC50 Sigma, pNPP or FDP as substrate, 25° C.) [µM] |
| --- | --- | --- | --- | --- | --- | --- | --- | --- | --- |
| CN(C)CC(COc1ccc(S(=O)(=O)C(F)(F)F)cc1[N+](=O)[O-])Oc1ccc(S(=O)(=O)C(F)(F)F)cc1[N+](=O)[O-] (stereo not drawn) [Example 24, [2,3-Bis-(2-nitro-4-trifluoromethanesulfonyl-phenoxy)-propyl]-dimethyl-amine] | > 100 | > 100 | 53.5 | – | – | – | – | – | – |
| CS(=O)(=O)Nc1ccc(Oc2ccc(Oc3ccc(NS(C)(=O)=O)cc3)cc2)cc1 [CH3SO2NH—] | – | – | – | 33.6 | > 100 | 22 | – | – | – |
| COC(=O)c1cc(Oc2ccc(S(=O)(=O)C(F)(F)F)cc2[N+](=O)[O-])cc(Oc2ccc(S(=O)(=O)C(F)(F)F)cc2[N+](=O)[O-])c1 [Example 11, 3,5-Bis-(2-nitro-4-trifluoromethanesulfonyl-phenoxy)-benzoic acid methyl ester] | > 100 | > 100 | 24.1 | – | – | – | – | – | – |
| O=C(Cc1ccc(CC(=O)Nc2cccc(S(=O)(=O)C(F)(F)F)c2)cc1)Nc1cccc(S(=O)(=O)C(F)(F)F)c1 [Example 22, N-(3-Trifluoromethanesulfonyl-phenyl)-2-{4-[(3-trifluoromethanesulfonyl-phenylcarbamoyl)-methyl]-phenyl}-acetamide] | 16.3 | 27.5 | 7.8 | – | – | – | – | – | – |
| O=C(O)Cc1ccccc1CC(=O)Nc1cccc(S(=O)(=O)C(F)(F)F)c1 [Example 27, {2-[(3-Trifluoromethanesulfonyl-phenylcarbamoyl)-methyl]-phenyl}-acetic acid] | > 100 | > 100 | > 100 | – | – | – | – | – | – |
| NC(=O)c1cc(Oc2ccc(S(=O)(=O)C(F)(F)F)cc2[N+](=O)[O-])cc(Oc2ccc(S(=O)(=O)C(F)(F)F)cc2[N+](=O)[O-])c1 [Example 30, 3,5-Bis-(2-nitro-4-trifluoromethanesulfonyl-phenoxy)-benzamide] | – | – | – | – | – | – | 52.8 | 64.3 | 26.5 |
| Nc1ccc(Oc2ccc(Oc3ccc(N)cc3)cc2)cc1 [NH2] | – | – | – | > 100 | > 100 | > 100 | – | – | – |
| Cc1cc(NS(=O)(=O)C(F)(F)F)ccc1CCc1ccc(NS(=O)(=O)C(F)(F)F)cc1C [Example 67, 1,2-Bis(2-methyl-4-trifluoromethylsulfonamidophenyl)ethane] | 17 | 85.7 | 41.4 | – | – | – | – | – | – |
| CCOC(=O)c1cc(Oc2ccc(S(=O)(=O)C(F)(F)F)cc2[N+](=O)[O-])c(C(=O)OCC)cc1O [Example 26, 2-Hydroxy-5-(2-nitro-4-trifluoromethanesulfonyl-phenoxy)-terephthalic acid diethyl ester] | > 100 | 90.8 | 69 | – | – | – | – | – | – |
| O=S(=O)(Nc1ccc(Oc2ccc(NS(=O)(=O)C(F)(F)F)cc2)cc1)C(F)(F)F [Example 73, Bis(4-trifluoromethylsulfonamidophenyl) ether] | > 100 | > 100 | > 100 | – | – | – | – | – | – |
| O=S(=O)(Nc1ccc(Oc2ccc(Oc3ccc(NS(=O)(=O)C(F)(F)F)cc3)cc2)cc1)C(F)(F)F [Example 71, 1,4-Bis(4-trifluoromethylsulfonamidophenoxy)benzene] | 3.4 | 39.4 | 44 | 3.4 | 39.4 | 44 | – | – | – |
| 1-(4-Aminophenoxy)-4-trifluoromethylsulfonamidophenoxy benzene [Example 72] | 17 | > 100 | 41.1 | – | – | – | – | – | – |
| O=S(=O)(Nc1ccc(-c2nnc(-c3ccc(NS(=O)(=O)C(F)(F)F)cc3)o2)cc1)C(F)(F)F [Example 75, 2,5-Bis(4-trifluoromethylsulfonamidophenyl)-(1,3,4)oxadiazole] | 8 | 12.8 | 13.2 | – | – | – | – | – | – |
| CCOC(=O)COc1ccc(S(=O)(=O)c2ccc(Oc3ccc(S(=O)(=O)C(F)(F)F)cc3)cc2)cc1 [Example 19, {4-[4-(4-trifluoromethanesulfonyl-phenoxy)-benzenesulfonyl]-phenoxy}-acetic acid ethyl ester] | > 100 | 52.2 | 93.3 | – | – | – | – | – | – |
| O=S(=O)(Nc1ccc(CCc2ccc(NS(=O)(=O)C(F)(F)F)cc2)cc1)C(F)(F)F [Example 66, 1,2-Bis(4-trifluoromethylsulfonamidophenyl)ethane] | 36.6 | > 100 | > 100 | – | – | – | – | – | – |
| O=C(NCc1ccc(S(=O)(=O)C(F)(F)F)cc1)c1ccc(S(=O)(=O)C(F)(F)F)cc1 [Example 5, N-(4-Trifluoromethylsulfonylbenzyl)-4-trifluoromethylsulfonylbenzamide] | > 100 | > 100 | > 100 | – | – | – | – | – | – |
| O=[N+]([O-])c1cc(S(=O)(=O)C(F)(F)F)ccc1Oc1cc(CN2CCOCC2)c(Oc2ccc(S(=O)(=O)C(F)(F)F)cc2[N+](=O)[O-])cc1CN1CCOCC1 [Example 23, 3,6-Bis-(morpholin-4-ylmethyl)-2,5-bis-(2-nitro-4-trifluoromethanesulfonyl-phenoxy)-benzene] | 27.6 | > 100 | 8.5 | – | – | – | – | – | – |
| O=S(=O)(Nc1ccc(OCCCCOc2ccc(NS(=O)(=O)C(F)(F)F)cc2)cc1)C(F)(F)F [Example 70, 1,4-Bis(4-trifluoromethylsulfonamidophenoxy)butane] | 17.1 | 70.7 | 38.1 | – | – | – | – | – | – |
| O=C(O)c1cc(Oc2ccc(S(=O)(=O)C(F)(F)F)cc2)cc(Oc2ccc(S(=O)(=O)C(F)(F)F)cc2)c1 [Example 31, 3,5-Bis-(4-trifluoromethanesulfonyl-phenoxy)-benzoic acid] | 5.7 | 9.6 | 7.7 | – | – | – | – | – | – |
